{"source": "patent US6403639B1", "about": "“2,3-dihydrobenzofuran derivatives” (Chugai Seiyaku Kabushiki Kaisha, priority 1997, dated 2002)", "key": {"[1]": {"test_system": "porcine kidney-derived LLC-PK1 cells", "assay": "Protective effect against cell injury of porcine kidney-derived LLC-PK1 cells (1), oxidized LDL-induced LDH leakage", "assay_type": "cell-based", "details": "oxidized LDL 100 μg/ml, 6 hours; for % cytoprotection 1): test compounds added 16 hours before addition of oxidized LDL; for % cytoprotection 2): test compounds added immediately before addition of oxidized LDL", "experimental": "For the purpose of evaluating in vitro cytoprotective effect of the compounds of the present invention, protective effect against cell injury of porcine kidney-derived LLC-PK1 cells (ATCC-CRL-13921) induced by oxidized low-density lipoprotein (oxidized LDL) was examined.\nThe oxidized LDL was prepared by placing 1 mg/ml of rabbit LDL in PBS (−) in the presence of 10 μM CuSO4 at 37° C. for 24 hours. Cell cultures were prepared by inoculating 1.25×10^4 cells/250 μl/well on a 48-well plate using M199 medium containing 3% FBS. Test compounds were dissolved or suspended in ethanol and added at a ratio of 1.25 μl/well 16 hours before or immediately before addition of the oxidized LDL to a concentration of 0.1, 1 or 10 μM in each well. The oxidized LDL was diluted twice with physiological saline and then added to cells at 62.5 μl/well to a concentration of 100 μg/ml and the cells were incubated for 6 hours after addition of the oxidized LDL. After the incubation, 162.5 μl of the culture medium was collected from each of the wells and measured for the lactate dehydrogenase (LDH) activity (Lactate Dehydrogenase (LD-L): SIGNA DIAGNOSTICS) which has leaked into the culture medium.\n(§1) The cytoprotective effect was expressed as a % cytoprotection where the effect in wells containing the oxidized LDL but without any test compound is 0% and the effect in wells containing physiological saline in place of the oxidized LDL is 100%."}, "cultured mesangial cells": {"test_system": "cultured mesangial cells", "assay": "Protective effect against cell injury of cultured mesangial cells, oxidized LDL-induced LDH leakage", "assay_type": "cell-based, rats", "experimental": "For the purpose of evaluating in vitro cytoprotective effect of the compounds of the present invention, protective effect against cell injury of cultured mesangial cells induced by oxidized low-density lipoprotein (LDL) was examined. The cells used were subcultures after 4 to 6 passages of the primary cultures of mesangial cells prepared from kidney of 4-week-old SD-strain male rats (Nippon Charles River Corp.).\nThe oxidized LDL was prepared by placing 1 mg/ml of rabbit LDL in PBS (−) in the presence of 10 μM CuSO4 at 37° C. for 24 hours. Cell cultures were prepared by inoculating 2.5×10^4 cells/250 μl/well on a 48-well plate using RPMI1640 medium containing 20% FBS. Immediately before addition of test compounds, the medium was replaced with RPMI1640 free from FBS. Test compounds were dissolved or suspended in ethanol and added at 1.25 μl/well 16 hours before or immediately before addition of the oxidized LDL to a concentration of 1, 3 or 10 μM in each well. Unlike Test example 1, the oxidized LDL was not diluted with physiological saline and added to cells at 25 μl/well to a concentration of 91 μg/ml and the cells were incubated for 8 hours after addition of the oxidized LDL. After the incubation, 150 μl of the culture medium was collected from each of the wells and measured for the lactate dehydrogenase activity (Lactate Dehydrogenase (LD-L): SIGMA DIAGNOSTICS) which has leaked in the culture medium.\nas §1"}, "[2]": {"details": "Rattus norvegicus, Mesangial cell; 1 μM; test compounds added 16 hours before addition of oxidized LDL; oxidized LDL 91 μg/ml, 8 hours; read-out: % cytoprotection 1)"}, "[3]": {"details": "Rattus norvegicus, Mesangial cell; 1 μM; test compounds added immediately before addition of oxidized LDL; oxidized LDL 91 μg/ml, 8 hours; read-out: % cytoprotection 2)"}, "[4]": {"details": "Rattus norvegicus, Mesangial cell; 3 μM; test compounds added 16 hours before addition of oxidized LDL; oxidized LDL 91 μg/ml, 8 hours; read-out: % cytoprotection 1)"}, "[5]": {"details": "Rattus norvegicus, Mesangial cell; 3 μM; test compounds added immediately before addition of oxidized LDL; oxidized LDL 91 μg/ml, 8 hours; read-out: % cytoprotection 2)"}}, "note": "Read-outs that look alike come from different tables or passages of the source.", "data": [{"smiles": "CC(C)(C)c1cc(O)c(C(C)(C)C)c2c1OCC2", "note": "[Example 1, 4,7-Di-t-butyl-5-hydroxy-2,3-dihydrobenzofuran]", "values": [{"measurement": "% cytoprotection 1)", "setting": "[1]; 0.1 μM", "result": 92.7, "unit": "%"}, {"measurement": "% cytoprotection 2)", "setting": "[1]; 0.1 μM", "result": 17.5, "unit": "%"}, {"measurement": "% cytoprotection 1)", "setting": "[1]; 1 μM", "result": 104.1, "unit": "%"}, {"measurement": "% cytoprotection 2)", "setting": "[1]; 1 μM", "result": 103.9, "unit": "%"}, {"measurement": "% cytoprotection 1)", "setting": "[1]; 10 μM", "result": 100.5, "unit": "%"}, {"measurement": "% cytoprotection 2)", "setting": "[1]; 10 μM", "result": 102.3, "unit": "%"}, {"measurement": "inhibition at 1 µM", "setting": "cultured mesangial cells; [2]", "result": "24.2 ± 9.3", "unit": "%"}, {"measurement": "inhibition at 1 µM", "setting": "cultured mesangial cells; [3]", "result": "40.3 ± 3.2", "unit": "%"}, {"measurement": "inhibition at 3 µM", "setting": "cultured mesangial cells; [4]", "result": "78.2 ± 13.4", "unit": "%"}, {"measurement": "inhibition at 3 µM", "setting": "cultured mesangial cells; [5]", "result": "69.7 ± 13.3", "unit": "%"}]}, {"smiles": "CC1Cc2c(c(C(C)(C)C)cc(O)c2C(C)(C)C)O1", "note": "(stereo not drawn) [Example 2, 4,7-Di-t-butyl-5-hydroxy-2-methyl-2,3-dihydrobenzofuran]", "values": [{"measurement": "% cytoprotection 1)", "setting": "[1]; 0.1 μM", "result": 24.4, "unit": "%"}, {"measurement": "% cytoprotection 2)", "setting": "[1]; 0.1 μM", "result": 27.1, "unit": "%"}, {"measurement": "% cytoprotection 1)", "setting": "[1]; 1 μM", "result": 101.2, "unit": "%"}, {"measurement": "% cytoprotection 2)", "setting": "[1]; 1 μM", "result": 101.5, "unit": "%"}, {"measurement": "% cytoprotection 1)", "setting": "[1]; 10 μM", "result": 101.0, "unit": "%"}, {"measurement": "% cytoprotection 2)", "setting": "[1]; 10 μM", "result": 99.9, "unit": "%"}, {"measurement": "inhibition at 1 µM", "setting": "cultured mesangial cells; [2]", "result": "35.6 ± 7.5", "unit": "%"}, {"measurement": "inhibition at 1 µM", "setting": "cultured mesangial cells; [3]", "result": "40.6 ± 8.2", "unit": "%"}, {"measurement": "inhibition at 3 µM", "setting": "cultured mesangial cells; [4]", "result": "60.5 ± 6.2", "unit": "%"}, {"measurement": "inhibition at 3 µM", "setting": "cultured mesangial cells; [5]", "result": "53.1 ± 5.7", "unit": "%"}]}, {"smiles": "CC1(C)Cc2cc(O)c(C(C)(C)C)cc2O1", "note": "[Example 5, 6-t-Butyl-5-hydroxy-2,2-dimethyl-2,3-dihydrobenzofuran]", "values": [{"measurement": "% cytoprotection 1)", "setting": "[1]; 0.1 μM", "result": 77.6, "unit": "%"}, {"measurement": "% cytoprotection 2)", "setting": "[1]; 0.1 μM", "result": 18.2, "unit": "%"}, {"measurement": "% cytoprotection 1)", "setting": "[1]; 1 μM", "result": 103.4, "unit": "%"}, {"measurement": "% cytoprotection 2)", "setting": "[1]; 1 μM", "result": 100.8, "unit": "%"}, {"measurement": "% cytoprotection 1)", "setting": "[1]; 10 μM", "result": 100.6, "unit": "%"}, {"measurement": "% cytoprotection 2)", "setting": "[1]; 10 μM", "result": 101.7, "unit": "%"}, {"measurement": "inhibition at 1 µM", "setting": "cultured mesangial cells; [2]", "result": "34.2 ± 4.5", "unit": "%"}, {"measurement": "inhibition at 1 µM", "setting": "cultured mesangial cells; [3]", "result": "11.3 ± 2.4", "unit": "%"}, {"measurement": "inhibition at 3 µM", "setting": "cultured mesangial cells; [4]", "result": "42.3 ± 4.7", "unit": "%"}, {"measurement": "inhibition at 3 µM", "setting": "cultured mesangial cells; [5]", "result": "28.9 ± 2", "unit": "%"}]}]}
